Data set [1] is described as follows: Mass transfer of polyol-drug formulations from substrate in device with puffing equipment; effluent collected on Cambridge pads, weighed, nicotine by GC/MS. As to conditions: after heating in device with PEG.
For data set [2] the following is noted: aerosol formed from the polyol; cited from earlier work.

Regarding `CN1CCCC1c1cccnc1.O=C(O)C(O)C(O)C(=O)O` (stereo not shown) [NIC B, nicotine bitartrate], the “decomposition products from nicotine in the chromatograms (GC/MS of extracts of collected effluent)” value in data set [1] is on record as “no measurable decomposition products”. In the case of `CN1CCCC1c1cccnc1` (stereo not shown) [NIC, nicotine], in data set [1], the “decomposition products from nicotine in the chromatograms (GC/MS of extracts of collected effluent)” value is on record as “no measurable decomposition products”.

Take `OCC(O)CO` [Glycerin]: the MMAD result in data set [2] was “less than 1.5 micrometers”.

Consider `CC(O)CO` (stereo not shown) [Propylene Glycol (PEG), Propylene Glycol], for which the MMAD entry in data set [2] is on record as “less than 0.9 micrometers”.

The values are drawn from US8251060B2, “Device and method for delivering an aerosol drug” (priority 2006, dated 2012).
